# Measured values from paper PMC12631831, “Painting Peptides With Antimicrobial Potency Through Deep Reinforcement Learning” (Advanced Science, 2025).
# Ends that are not written are not given here.
# Tested on: B.subtilis ATCC6633
# Assay: not given
# Details: ATCC6633, 18 h
# Method: (§1) Four standard bacteria used for the MIC test were Escherichia coli ATCC25922, Pseudomonas aeruginosa ATCC9027, Staphylococcus aureus ATCC6538, and Bacillus subtilis ATCC6633. The testing procedures followed the Hancock methods.^[ [67] ^] The peptides were diluted in sterilized PBS to 512 µM as storage solutions. Then twofold gradient dilution was performed to make different concentrations (128, 64, 32, 16, 8, 4, 2, 1, 0.5, 0.25, and 0.125 µM) of AMPs. Each bacteria was incubated in LB broth at 37 °C until its absorbance at 625 nm reached 0.08–0.10, then diluted 10,000 times and added into a sterile 96‐well polypropylene plate (Grenier, #655201). A co‐incubation system included 100 µL peptide solution and 100 µL bacterial suspension.
Sequence,MIC B.subtilis ATCC6633 [µM],MIC B.subtilis [µM]
RGWFKVKMRYIKRFMRGLRGFHIKAA [2-6],2,
RGWFKVKRRYIKRFMRGLRGFHIKAA [R04],1,
RKRVVWGKIFFRRR [S04],64,
KKQVKWLLKVWKKVGIKLGAKLPVWK [S01],2,
IFHHIFRGIHHIFKGIHRLWKR [A02],4,
GIKKWIKGAIKKLIKKVAKWIWKQ [A07],0.5,
GRKKRRRRRRGGWWWKLGLRWF [A08],64,
KLYKYKYRKVYKKQRRR [R09],> 128,
"AFHHIFRGIVHVGKTIHRLVTG [Piscidin 1 [F1A], reference compound]",,4
LWRWKLLGRISVIIGKIKAALRLWF [R06],> 128,
KWFFKWFRKHFLKWMRQYFHK [R02],4,
YWRRWYIWRWRRWRWLRYI [R03],128,
IKRRIRRRPIRRRQRR [S06],> 128,
GIKKWIKGWAKKLIKKVAKKIAKQ [A05],0.25,
RGWTMVKARYIKRFMRGLRGFHIKAA [2-2],2,
YKGFWRKIIYLIMMHAMKFMVWFLHLPKQ [R08],> 128,
FFHHIFRKIHHVFKKIHRLFHH [A09],4,
GILFLKRLRILGIGKLLLLKR [S05],64,

# Tested on: E.coli ATCC25922
# Assay: not given
# Details: ATCC25922, 18 h
# Method: as §1
Sequence,MIC E.coli ATCC25922 [µM],MIC E.coli [µM]
RGWFKVKMRYIKRFMRGLRGFHIKAA [2-6],4,
RGWFKVKRRYIKRFMRGLRGFHIKAA [R04],2,
RKRVVWGKIFFRRR [S04],64,
KKQVKWLLKVWKKVGIKLGAKLPVWK [S01],16,
IFHHIFRGIHHIFKGIHRLWKR [A02],64,
GIKKWIKGAIKKLIKKVAKWIWKQ [A07],8,
GRKKRRRRRRGGWWWKLGLRWF [A08],> 128,
KLYKYKYRKVYKKQRRR [R09],> 128,
"AFHHIFRGIVHVGKTIHRLVTG [Piscidin 1 [F1A], reference compound]",,16
LWRWKLLGRISVIIGKIKAALRLWF [R06],> 128,
KWFFKWFRKHFLKWMRQYFHK [R02],128,
YWRRWYIWRWRRWRWLRYI [R03],> 128,
IKRRIRRRPIRRRQRR [S06],> 128,
GIKKWIKGWAKKLIKKVAKKIAKQ [A05],0.5,
RGWTMVKARYIKRFMRGLRGFHIKAA [2-2],4,
YKGFWRKIIYLIMMHAMKFMVWFLHLPKQ [R08],> 128,
FFHHIFRKIHHVFKKIHRLFHH [A09],64,
GILFLKRLRILGIGKLLLLKR [S05],> 128,

# Tested on: P.aeruginosa ATCC9027
# Assay: not given
# Details: ATCC9027, 18 h
# Method: as §1
Sequence,MIC P.aeruginosa ATCC9027 [µM],MIC P.aeruginosa [µM]
RGWFKVKMRYIKRFMRGLRGFHIKAA [2-6],16,
RGWFKVKRRYIKRFMRGLRGFHIKAA [R04],8,
KKQVKWLLKVWKKVGIKLGAKLPVWK [S01],64,
IFHHIFRGIHHIFKGIHRLWKR [A02],> 128,
GIKKWIKGAIKKLIKKVAKWIWKQ [A07],16,
GRKKRRRRRRGGWWWKLGLRWF [A08],> 128,
KLYKYKYRKVYKKQRRR [R09],> 128,
"AFHHIFRGIVHVGKTIHRLVTG [Piscidin 1 [F1A], reference compound]",,> 128
LWRWKLLGRISVIIGKIKAALRLWF [R06],> 128,
KWFFKWFRKHFLKWMRQYFHK [R02],64,
YWRRWYIWRWRRWRWLRYI [R03],> 128,
IKRRIRRRPIRRRQRR [S06],> 128,
GIKKWIKGWAKKLIKKVAKKIAKQ [A05],4,
RGWTMVKARYIKRFMRGLRGFHIKAA [2-2],128,
YKGFWRKIIYLIMMHAMKFMVWFLHLPKQ [R08],> 128,
FFHHIFRKIHHVFKKIHRLFHH [A09],> 128,
GILFLKRLRILGIGKLLLLKR [S05],> 128,

# Tested on: S.aureus ATCC6538
# Assay: not given
# Details: ATCC6538, 18 h
# Method: as §1
Sequence,MIC S.aureus ATCC6538 [µM],MIC S.aureus [µM]
RGWFKVKMRYIKRFMRGLRGFHIKAA [2-6],1,
RGWFKVKRRYIKRFMRGLRGFHIKAA [R04],0.5,
KKQVKWLLKVWKKVGIKLGAKLPVWK [S01],2,
IFHHIFRGIHHIFKGIHRLWKR [A02],4,
GIKKWIKGAIKKLIKKVAKWIWKQ [A07],2,
GRKKRRRRRRGGWWWKLGLRWF [A08],64,
KLYKYKYRKVYKKQRRR [R09],64,
"AFHHIFRGIVHVGKTIHRLVTG [Piscidin 1 [F1A], reference compound]",,4
LWRWKLLGRISVIIGKIKAALRLWF [R06],> 128,
KWFFKWFRKHFLKWMRQYFHK [R02],8,
YWRRWYIWRWRRWRWLRYI [R03],128,
IKRRIRRRPIRRRQRR [S06],128,
GIKKWIKGWAKKLIKKVAKKIAKQ [A05],1,
RGWTMVKARYIKRFMRGLRGFHIKAA [2-2],2,
YKGFWRKIIYLIMMHAMKFMVWFLHLPKQ [R08],> 128,
FFHHIFRKIHHVFKKIHRLFHH [A09],8,
GILFLKRLRILGIGKLLLLKR [S05],128,

# Tested on: HEK293T cells
# Assay: Cytotoxicity assay (CellTiter-Glo)
# Format: cell-based, human
# Details: 72 h, 1-128 µM, triplicate
# Method: HEK293T cells were cultured in DMEM supplemented with 10% FBS and incubated at 37 °C with 5% CO2. After planting the cells into a 96‐well plate and incubated overnight, AMP solutions were added. The gradient dilution of AMPs followed the same setting as mentioned in the hemolysis assay. Staurosporine (STS) was used as a positive control and PBS as vehicle control. STS was diluted to 60, 12, 2.4, 0.48, 0.1, 0.02, 0.0038, and 0.0008 µM. After incubation for 72 h, the CellTiter‐Glo®Luminescent assay was performed to evaluate the cell viability. After equilibration to room temperature, the 96‐well plate containing treated cells was loaded with 100 µL CellTiter Glo (CTG, Promega) reagent each well. The plate was incubated for 30 mins, then detected by the EnVision system at a […]. Data were fitted and analyzed with GraphPad Prism 8. All tests were performed in triplicate.
row,Sequence,CC50 (concentration that reduces viability by 50%) [µM]
1,RGWFKVKRRYIKRFMRGLRGFHIKAA [R04],23.59

# Tested on: human erythrocytes
# Assay: not given
# Details: ref DBAASP; cited from earlier work
row,Sequence,Concentration for 100% hemolysis [µM]
1,"AFHHIFRGIVHVGKTIHRLVTG [Piscidin 1 [F1A], reference compound]",100
